Reference: the supplement of paper PMC12819154, “High-throughput peptide-centric local stability assay extends protein–ligand identification to membrane proteins, tissues and bacteria” (Nature Structural & Molecular Biology, 2025)

How the values were obtained:
Assay in all cases: pEC50 of peptide local stability change
[1] = target: UniProt P03018; settings: peptide sequence: EVYHRPSR; direction: stabilized; replicate design: treated separately
Procedure: (§1)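 Dose-response HT-PELSA: desalted E. coli lysate treated separately per replicate with ATP (10 uM to 10 mM, 7 doses) for 30 min at 25 C, then a 4 min trypsin pulse at 22 C. Peptide ratio vs control was fitted with a 4-parameter log-logistic model (R2 > 0.9 in at least 3 replicates, CV of pEC50 <= 0.25); value is the mean pEC50 across replicates for stabilized or destabilized peptides.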

[2] = target: UniProt P45395; settings: peptide sequence: VNDIMHTGDEIPHVKK; direction: stabilized; replicate design: treated separately
UniProt P45395, sequence (P45395 whole entry): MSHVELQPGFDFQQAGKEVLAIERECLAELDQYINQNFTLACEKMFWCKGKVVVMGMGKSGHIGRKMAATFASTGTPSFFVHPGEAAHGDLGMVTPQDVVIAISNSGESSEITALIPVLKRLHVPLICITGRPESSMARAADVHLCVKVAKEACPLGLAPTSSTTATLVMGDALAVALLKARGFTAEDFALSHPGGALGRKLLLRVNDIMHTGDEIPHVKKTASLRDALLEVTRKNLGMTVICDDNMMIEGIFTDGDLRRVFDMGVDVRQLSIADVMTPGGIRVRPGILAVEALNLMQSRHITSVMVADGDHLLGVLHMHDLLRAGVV
Procedure: as §1

[3] = target: UniProt P0AFU4; settings: peptide sequence: LMTASWPGNVR; direction: stabilized; replicate design: treated separately
Procedure: as §1

[4] = target: UniProt P22106; settings: peptide sequence: QALEDSVK; direction: stabilized; replicate design: treated separately
UniProt P22106, sequence (P22106 whole entry): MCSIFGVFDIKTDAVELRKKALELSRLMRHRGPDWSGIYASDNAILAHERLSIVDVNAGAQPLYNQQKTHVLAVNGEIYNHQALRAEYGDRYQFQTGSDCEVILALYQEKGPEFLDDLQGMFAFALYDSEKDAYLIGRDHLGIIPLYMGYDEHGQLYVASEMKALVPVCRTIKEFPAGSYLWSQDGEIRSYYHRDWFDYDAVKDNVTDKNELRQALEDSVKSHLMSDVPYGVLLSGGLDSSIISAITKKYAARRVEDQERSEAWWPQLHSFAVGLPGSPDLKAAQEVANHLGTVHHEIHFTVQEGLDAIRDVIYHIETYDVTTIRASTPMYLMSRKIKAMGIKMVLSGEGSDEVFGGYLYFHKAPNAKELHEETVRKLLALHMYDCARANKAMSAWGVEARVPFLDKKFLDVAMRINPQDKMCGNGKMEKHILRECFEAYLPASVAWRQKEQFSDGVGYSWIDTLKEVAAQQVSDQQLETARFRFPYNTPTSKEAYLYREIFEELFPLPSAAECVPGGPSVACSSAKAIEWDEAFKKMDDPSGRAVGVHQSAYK
Procedure: as §1

[5] = target: UniProt P25536; settings: peptide sequence: IVTGIEEQR; direction: stabilized; replicate design: treated separately
Procedure: as §1

[6] = target: UniProt P13009; settings: peptide sequence: TPPVTLEAAR; direction: stabilized; replicate design: treated separately
UniProt P13009, sequence (P13009 whole entry): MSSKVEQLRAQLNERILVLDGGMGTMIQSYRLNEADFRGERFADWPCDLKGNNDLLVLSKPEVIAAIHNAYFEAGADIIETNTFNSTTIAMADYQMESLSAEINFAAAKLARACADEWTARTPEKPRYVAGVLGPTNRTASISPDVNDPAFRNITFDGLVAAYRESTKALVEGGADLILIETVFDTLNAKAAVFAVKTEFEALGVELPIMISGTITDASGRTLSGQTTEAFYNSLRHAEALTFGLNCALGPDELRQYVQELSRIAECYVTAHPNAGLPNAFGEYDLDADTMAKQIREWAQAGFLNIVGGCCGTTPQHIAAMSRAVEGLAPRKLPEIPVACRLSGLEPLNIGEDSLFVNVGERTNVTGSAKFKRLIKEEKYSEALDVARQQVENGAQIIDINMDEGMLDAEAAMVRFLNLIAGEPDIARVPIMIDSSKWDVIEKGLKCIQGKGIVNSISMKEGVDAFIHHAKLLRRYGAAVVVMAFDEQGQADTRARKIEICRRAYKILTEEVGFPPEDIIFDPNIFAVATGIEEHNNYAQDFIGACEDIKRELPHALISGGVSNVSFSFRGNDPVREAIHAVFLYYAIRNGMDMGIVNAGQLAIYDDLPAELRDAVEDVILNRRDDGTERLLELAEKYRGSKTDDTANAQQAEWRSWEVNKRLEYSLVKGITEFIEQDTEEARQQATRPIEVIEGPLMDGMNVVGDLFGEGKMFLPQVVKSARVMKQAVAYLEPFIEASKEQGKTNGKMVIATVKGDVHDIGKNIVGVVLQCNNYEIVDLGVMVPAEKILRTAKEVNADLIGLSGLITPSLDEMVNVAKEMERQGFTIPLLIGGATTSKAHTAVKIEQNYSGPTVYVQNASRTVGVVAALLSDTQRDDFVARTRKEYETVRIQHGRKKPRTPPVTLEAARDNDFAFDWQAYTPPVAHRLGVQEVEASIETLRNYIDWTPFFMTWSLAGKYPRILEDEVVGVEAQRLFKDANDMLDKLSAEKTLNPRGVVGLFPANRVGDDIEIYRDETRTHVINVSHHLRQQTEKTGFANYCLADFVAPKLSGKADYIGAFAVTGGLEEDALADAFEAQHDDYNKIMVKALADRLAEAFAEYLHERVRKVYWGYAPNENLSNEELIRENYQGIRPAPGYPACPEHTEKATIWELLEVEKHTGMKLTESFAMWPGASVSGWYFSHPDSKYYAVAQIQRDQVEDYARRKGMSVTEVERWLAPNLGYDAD
Procedure: as §1

[7] = target: UniProt P03007; settings: peptide sequence: VTDSLAVAR; direction: stabilized; replicate design: treated separately
UniProt P03007, sequence (P03007 whole entry): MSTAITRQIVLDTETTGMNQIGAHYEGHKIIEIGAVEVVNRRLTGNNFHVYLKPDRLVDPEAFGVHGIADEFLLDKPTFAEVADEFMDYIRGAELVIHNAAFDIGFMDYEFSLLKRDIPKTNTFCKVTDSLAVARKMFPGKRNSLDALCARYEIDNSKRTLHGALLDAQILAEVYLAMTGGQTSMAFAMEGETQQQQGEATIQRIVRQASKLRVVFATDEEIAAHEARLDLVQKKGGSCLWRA
Procedure: as §1

[8] = target: UniProt P21345; settings: peptide sequence: EVLGKFDK; direction: stabilized; replicate design: treated separately
Procedure: as §1

[9] = target: UniProt Q47129; settings: peptide sequence: LSTVTTSGVNLSR; direction: stabilized; replicate design: treated separately
UniProt Q47129, sequence (Q47129 whole entry): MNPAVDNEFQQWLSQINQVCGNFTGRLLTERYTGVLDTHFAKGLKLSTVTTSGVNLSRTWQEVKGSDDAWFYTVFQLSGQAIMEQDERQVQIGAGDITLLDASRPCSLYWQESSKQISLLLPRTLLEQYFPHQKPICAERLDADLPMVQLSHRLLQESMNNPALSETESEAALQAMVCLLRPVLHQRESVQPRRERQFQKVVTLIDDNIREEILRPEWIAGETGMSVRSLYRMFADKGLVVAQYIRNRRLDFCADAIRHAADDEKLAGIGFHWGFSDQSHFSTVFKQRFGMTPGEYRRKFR
Procedure: as §1

[10] = target: UniProt P77499; settings: peptide sequence: GKDLLALSPEDR; direction: stabilized; replicate design: treated separately
UniProt P77499, sequence (P77499 whole entry): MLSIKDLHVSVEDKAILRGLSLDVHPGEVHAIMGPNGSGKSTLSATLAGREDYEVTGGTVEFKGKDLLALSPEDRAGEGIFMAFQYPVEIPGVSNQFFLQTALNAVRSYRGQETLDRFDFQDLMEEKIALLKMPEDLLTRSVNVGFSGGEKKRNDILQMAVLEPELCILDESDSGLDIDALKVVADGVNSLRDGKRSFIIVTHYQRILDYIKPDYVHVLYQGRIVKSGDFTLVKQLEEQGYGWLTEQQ
Procedure: as §1

[11] = target: UniProt P24230; settings: peptide sequence: LVQGDVGSGK; direction: stabilized; replicate design: treated separately
Procedure: as §1

[12] = target: UniProt P27550; settings: peptide sequence: NTSFAPGNVSIK; direction: stabilized; replicate design: treated separately
Procedure: as §1

[13] = target: UniProt P75796; settings: peptide sequence: IPEAQTILSR; direction: stabilized; replicate design: treated separately
UniProt P75796, sequence (P75796 whole entry): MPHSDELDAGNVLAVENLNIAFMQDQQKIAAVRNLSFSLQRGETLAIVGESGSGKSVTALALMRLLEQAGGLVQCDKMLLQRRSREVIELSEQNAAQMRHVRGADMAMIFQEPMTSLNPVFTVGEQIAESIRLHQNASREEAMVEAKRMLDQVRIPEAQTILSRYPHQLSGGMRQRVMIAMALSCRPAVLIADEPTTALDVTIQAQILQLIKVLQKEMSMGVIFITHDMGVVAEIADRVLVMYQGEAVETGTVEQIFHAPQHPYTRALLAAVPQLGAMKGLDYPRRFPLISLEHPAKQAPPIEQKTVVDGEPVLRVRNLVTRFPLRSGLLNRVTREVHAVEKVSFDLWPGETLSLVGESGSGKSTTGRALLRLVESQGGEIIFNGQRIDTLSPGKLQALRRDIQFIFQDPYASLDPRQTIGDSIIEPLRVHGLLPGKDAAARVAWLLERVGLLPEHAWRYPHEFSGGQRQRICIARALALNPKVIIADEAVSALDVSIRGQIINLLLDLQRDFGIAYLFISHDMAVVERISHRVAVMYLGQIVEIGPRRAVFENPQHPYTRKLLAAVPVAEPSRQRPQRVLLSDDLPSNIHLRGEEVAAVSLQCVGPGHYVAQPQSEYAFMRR
Procedure: as §1

[14] = target: UniProt P36879; settings: peptide sequence: KTYPGGVQALR; direction: stabilized; replicate design: treated separately
Procedure: as §1

[15] = target: UniProt P77485; settings: peptide sequence: GTVAVTSDAR; direction: stabilized; replicate design: treated separately
Procedure: as §1

[16] = target: UniProt P42593; settings: peptide sequence: TTGWIHR; direction: stabilized; replicate design: treated separately
UniProt P42593, sequence (P42593 whole entry): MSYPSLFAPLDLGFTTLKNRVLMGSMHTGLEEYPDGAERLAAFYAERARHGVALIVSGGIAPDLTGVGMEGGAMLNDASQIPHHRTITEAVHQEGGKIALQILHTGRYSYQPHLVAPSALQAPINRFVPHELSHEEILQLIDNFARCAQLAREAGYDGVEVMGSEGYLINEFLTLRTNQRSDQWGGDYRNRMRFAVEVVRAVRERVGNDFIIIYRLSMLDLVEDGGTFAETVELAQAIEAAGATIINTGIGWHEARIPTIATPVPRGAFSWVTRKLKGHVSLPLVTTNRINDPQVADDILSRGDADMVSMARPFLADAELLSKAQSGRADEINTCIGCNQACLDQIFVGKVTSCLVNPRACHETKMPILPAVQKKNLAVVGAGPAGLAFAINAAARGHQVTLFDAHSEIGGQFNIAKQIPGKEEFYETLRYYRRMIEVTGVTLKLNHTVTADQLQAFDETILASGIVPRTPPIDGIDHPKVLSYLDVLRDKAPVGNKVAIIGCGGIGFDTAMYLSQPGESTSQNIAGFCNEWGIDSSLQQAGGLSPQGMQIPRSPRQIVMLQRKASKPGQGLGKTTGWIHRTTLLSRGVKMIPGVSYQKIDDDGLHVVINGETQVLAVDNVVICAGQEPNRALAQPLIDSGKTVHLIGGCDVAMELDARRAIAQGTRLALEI
Procedure: as §1

[17] = target: UniProt P21599; settings: peptide sequence: VLEVQGMK; direction: stabilized; replicate design: treated separately
Procedure: as §1

[18] = target: UniProt P76594; settings: peptide sequence: YLVIQGIK; direction: stabilized; replicate design: treated separately
Procedure: as §1

[19] = target: UniProt P37634; settings: peptide sequence: HTVQSLIIESLKEK; direction: stabilized; replicate design: treated separately
Procedure: as §1

[20] = target: UniProt P06999; settings: peptide sequence: ELTQPDDVR; direction: stabilized; replicate design: treated separately
Procedure: as §1

[21] = target: UniProt P37647; settings: peptide sequence: GHLTASTVIQYR; direction: stabilized; replicate design: treated separately
Procedure: as §1

[22] = target: UniProt P32143; settings: peptide sequence: AGIPDCDQTR; direction: stabilized; replicate design: treated separately
UniProt P32143, sequence (P32143 whole entry): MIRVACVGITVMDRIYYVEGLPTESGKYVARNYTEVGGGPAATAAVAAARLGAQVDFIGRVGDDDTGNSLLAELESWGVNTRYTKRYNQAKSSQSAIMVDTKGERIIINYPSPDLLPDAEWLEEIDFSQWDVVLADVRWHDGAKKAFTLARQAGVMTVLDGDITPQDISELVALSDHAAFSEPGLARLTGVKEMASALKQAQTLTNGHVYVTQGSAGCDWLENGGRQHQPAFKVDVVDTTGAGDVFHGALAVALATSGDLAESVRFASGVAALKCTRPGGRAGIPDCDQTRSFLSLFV
Procedure: as §1

[23] = target: UniProt P30015; settings: peptide sequence: TGDTPAQER; direction: stabilized; replicate design: treated separately
Procedure: as §1

[24] = target: UniProt P23538; settings: peptide sequence: QVKIEDVPQEQR; direction: stabilized; replicate design: treated separately
Procedure: as §1

[25] = target: UniProt P37440; settings: peptide sequence: CTAVVADVR; direction: stabilized; replicate design: treated separately
Procedure: as §1

[26] = target: UniProt P09980; settings: peptide sequence: DYAILYR; direction: stabilized; replicate design: treated separately
Procedure: as §1

[27] = target: UniProt P46889; settings: peptide sequence: DIAGEPVVADLAK; direction: stabilized; replicate design: treated separately
Procedure: as §1

[28] = target: UniProt P0AAB8; settings: peptide sequence: EQCDLLVCGHHHSFINR; direction: stabilized; replicate design: treated separately
UniProt P0AAB8, sequence (P0AAB8 whole entry): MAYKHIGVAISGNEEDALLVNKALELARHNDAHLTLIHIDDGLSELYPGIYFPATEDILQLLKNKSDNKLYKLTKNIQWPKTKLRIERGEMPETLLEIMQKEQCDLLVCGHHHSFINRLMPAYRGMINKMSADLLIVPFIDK
Procedure: as §1

[29] = target: UniProt P11664; settings: peptide sequence: GAPETFDVAK; direction: stabilized; replicate design: treated separately
Procedure: as §1

[30] = target: UniProt P76027; settings: peptide sequence: EILNLPEHELNKLR; direction: stabilized; replicate design: treated separately
UniProt P76027, sequence (P76027 whole entry): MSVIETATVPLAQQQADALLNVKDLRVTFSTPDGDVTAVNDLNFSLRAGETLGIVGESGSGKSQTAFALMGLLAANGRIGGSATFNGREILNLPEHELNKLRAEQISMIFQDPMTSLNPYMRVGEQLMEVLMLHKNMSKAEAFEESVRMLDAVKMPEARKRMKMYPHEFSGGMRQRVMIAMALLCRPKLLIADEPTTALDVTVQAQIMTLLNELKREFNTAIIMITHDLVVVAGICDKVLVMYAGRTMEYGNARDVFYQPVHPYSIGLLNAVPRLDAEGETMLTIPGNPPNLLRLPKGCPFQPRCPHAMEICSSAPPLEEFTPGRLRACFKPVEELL
Procedure: as §1

[31] = target: UniProt P00452; settings: peptide sequence: VKAVELFSLMMQER; direction: stabilized; replicate design: treated separately
Procedure: as §1

Nc1ncnc2c1ncn2[C@@H]1O[C@H](COP(=O)(O)OP(=O)(O)OP(=O)(O)O)[C@@H](O)[C@H]1O [adenosine 5'-triphosphate]
Settings | pEC50 of peptide local stability change
[1] | 3.07
[2] | 3.32
[3] | 3.39
[4] | 2.42
[5] | 3.52
[6] | 2.53
[7] | 2.27
[8] | 2.25
[9] | 2.46
[10] | 3.9
[11] | 2.78
[12] | 3.34
[13] | 3.2
[14] | 3.73
[15] | 2.24
[16] | 2.95
[17] | 2.4
[18] | 2.33
[19] | 2.64
[20] | 3.2
[21] | 3.1
[22] | 3.39
[23] | 3.43
[24] | 4.42
[25] | 2.72
[26] | 4.14
[27] | 2.99
[28] | 3.82
[29] | 3.03
[30] | 2.71
[31] | 3.75
